Patent US9837621B2, “Compound, light-emitting element, light-emitting device, electronic device, and lighting device” (Semiconductor Energy Laboratory Co., Ltd., priority 2014, dated 2017)

Assays:
physchem = type: physicochemical; conditions: organic solvent or mixture, thermodynamic from solid
Source text: The compounds which are embodiments of the present invention and used in this example were 2mFDBtPDBq (sample 1) and 2mDBTBPDBq-VIII (sample 2). For the methods for synthesizing the compounds, Synthesis Examples 1 and 2 can be referred to. As comparative compounds, 2-[3′-(dibenzothiophen-4-yl)biphenyl-3-yl]dibenzo[f,h]quinoxaline (abbreviation: 2mDBTBPDBq-II) (comparative sample 3) and 2-[3-(dibenzothiophen-4-yl)phenyl]dibenzo[f,h]quinoxaline (abbreviation: 2mDBTPDBq-II) (comparative sample 4) were used in this example. The purity of each compound was 99.9%. The chemical formulae of the compounds are shown below.
The solvents used in this example were the four kinds of solvents: toluene, chloroform, ethyl acetate, and acetone.
A method for examining the solubility of the compound of each sample is described. First, 10 mg of the compound was put into a small bottle and to this was added 1 mL of a solvent. Then, whether the compound was dissolved at room temperature or not was checked. When the compound was not dissolved at room temperature, ultrasonic wave irradiation and then heating using a dryer were performed, so that whether the compound was dissolved or not was checked.
When the compound was not dissolved after heating, the volume of the solvent was increased to 10 mL, so that whether the compound was dissolved at room temperature or not was checked. […]

[1] = Thermogravimetry-differential thermal analysis (TG-DTA), 5% weight loss temperature; type: physicochemical; conditions: nitrogen stream 200 mL/min, normal pressure, temperature rising rate 10° C./min
Protocol: Thermogravimetry-differential thermal analysis (TG-DTA) was performed on 2mFDBtPDBq. The measurement was conducted by using a high vacuum differential type differential thermal balance (TG/DTA 2410SA, manufactured by Bruker AXS K.K.). The measurement was conducted under a nitrogen stream (flow rate: 200 mL/min) at normal pressure at a temperature rising rate of 10° C./min. It was found from the relationship between weight and temperature (thermogravimetry) that the 5% weight loss temperature of 2mFDBtPDBq was 495° C.
TG-DTA was performed on 2mDBtBPDBq-VIII. The conditions of the measurement were similar to those in Example 1. It was found from thermogravimetry that the 5% weight loss temperature of 2mDBtBPDBq-VIII was 500° C. or higher.

Row | SMILES | solubility (physchem) [µg/mL] | 5% weight loss temperature [1] [°C]
1 | CC1(C)c2ccccc2-c2ccc(-c3cccc4c3sc3c(-c5cccc(-c6cccc(-c7cnc8c9ccccc9c9ccccc9c8n7)c6)c5)cccc34)cc21 [2mDBtBPDBq-VIII, 2-(3-{3-[6-(9,9-dimethylfluoren-2-yl)dibenzothiophen-4-yl]phenyl}phenyl)dibenzo[f,h]quinoxaline] | > 10000 | ≥ 500
2 | CC1(C)c2ccccc2-c2ccc(-c3cccc4c3sc3c(-c5cccc(-c6cnc7c8ccccc8c8ccccc8c7n6)c5)cccc34)cc21 [2mFDBtPDBq, 2-{3-[6-(9,9-dimethylfluoren-2-yl)dibenzothiophen-4-yl]phenyl}dibenzo[f,h]quinoxaline] | > 10000 | 495
